{"source": "patent US10675293B2", "about": "“Nucleoside agents for the reduction of the deleterious activity of extended nucleotide repeat containing genes” (The Board of Trustees of the Leland Stanford Junior …, priority 2015, dated 2020)", "tested_on": "eGFPC1", "experiment": "GFP reporter in HEK293 cells, eGFPC1 without polyQ", "assay_type": "cell-based", "conditions": "higher concentration, 48 hours after transfection", "experimental": "HEK293 cells were transiently transfected with the above mentioned GFP constructs. Five hours after transfection, cells were split among the wells of a 24-well plate and various concentrations of HD101 were added into the wells. 48 hours after transfection, cells were washed with PBS, fixed with 4% paraformaldehyde, and then nuclear stained with DAPI. The cell images were taken by fluorescent microscope (FIG. 9A) and the GFP and DAPI intensity of each field were quantitated using software Image Pro 6.2."}
{"smiles": "O=c1cnn([C@@H]2O[C@H](CO)[C@@H](O)[C@H]2O)c(=O)[nH]1", "note": "[HD101, 6-Azauridine]", "values": [{"measurement": "eGFPC1 expression (GFP intensity normalized with DAPI)", "value": "minimum effect"}]}
